Source: ChEMBL document CHEMBL4038347, “Converting Teixobactin into a Cationic Antimicrobial Peptide (AMP)” (2017)
In brackets after ≈: the same amount, converted by molar mass. Activity calls are given as the source filed them. The calls are words filed in the database; no cut-off is given here. Where a SMILES comes first, the peptide text is derived from it. Bridges are numbered along the chain shown (N, C = ends). [ ]: non-standard residue; d: D form. d(aIle) = CC[C@H](C)[C@@H](N)C(=O)O; dNMeF = CN[C@H](Cc1ccccc1)C(=O)O; Orn = NCCC[C@H](N)C(=O)O

What was measured:
Format in all cases: functional
[1] = tested on: Bacillus subtilis; experiment: Antibacterial activity against Bacillus subtilis ATCC 6051 after 24 hrs by broth microdilution method
[2] = tested on: Staphylococcus aureus; experiment: Antibacterial activity against Staphylococcus aureus ATCC 29213 after 24 hrs by broth microdilution method
[3] = tested on: Pseudomonas aeruginosa; experiment: Antibacterial activity against Pseudomonas aeruginosa ATCC 27853 after 24 hrs by broth microdilution method
[4] = tested on: Escherichia coli; experiment: Antibacterial activity against Escherichia coli ATCC 25922 after 24 hrs by broth microdilution method

SMILES | MIC [1] | MIC [2] | MIC [3] | MIC [4] | MIC ([1]; ATCC 6051, 24 h) | MIC ([2]; ATCC 29213, 24 h) | MIC ([3]; ATCC 27853, 24 h) | MIC ([4]; ATCC 25922, 24 h)
CC[C@H](C)[C@H](NC(=O)[C@@H](Cc1ccccc1)NC)C(=O)N[C@@H](CO)C(=O)N[C@H](CCC(N)=O)C(=O)N[C@@H](C(=O)N[C@H](C(=O)N[C@@H](CO)C(=O)N[C@H]1C(=O)N[C@@H](C)C(=O)N2C[C@@H](N)C[C@H]2C(=O)N[C@@H]([C@@H](C)CC)C(=O)O[C@H]1C)[C@@H](C)CC)[C@@H](C)CC | inactive | inactive | inactive | inactive |  |  |  | 
CC[C@H](C)[C@H](NC(=O)[C@@H](Cc1ccccc1)NC)C(=O)N[C@@H](CN)C(=O)N[C@H](CCC(N)=O)C(=O)N[C@@H](C(=O)N[C@H](C(=O)N[C@@H](CO)C(=O)N[C@H]1C(=O)N[C@@H](CN)C(=O)N[C@@H](CCCCN)C(=O)N[C@@H]([C@@H](C)CC)C(=O)O[C@H]1C)[C@@H](C)CC)[C@@H](C)CC |  |  |  |  | 4 µg/mL (≈ 3.25 µM) | 4 µg/mL (≈ 3.25 µM) | 64 µg/mL (≈ 52 µM) | 64 µg/mL (≈ 52 µM)
CC[C@H](C)[C@H](NC(=O)[C@@H](Cc1ccccc1)NC)C(=O)N[C@@H](CO)C(=O)N[C@H](CN)C(=O)N[C@@H](C(=O)N[C@H](C(=O)N[C@@H](CN)C(=O)N[C@H]1C(=O)N[C@@H](CN)C(=O)N[C@@H](CCCCN)C(=O)N[C@@H]([C@@H](C)CC)C(=O)O[C@H]1C)[C@@H](C)CC)[C@@H](C)CC |  |  |  |  | 16 µg/mL (≈ 13.5 µM) | 64 µg/mL (≈ 53.9 µM) | 64 µg/mL (≈ 53.9 µM) | 64 µg/mL (≈ 53.9 µM)
CC[C@H](C)[C@H](NC(=O)[C@@H](Cc1ccccc1)NC)C(=O)N[C@@H](CO)C(=O)N[C@H](CCC(N)=O)C(=O)N[C@@H](C(=O)N[C@H](C(=O)N[C@@H](CN)C(=O)N[C@H]1C(=O)N[C@@H](CN)C(=O)N[C@@H](CCCCN)C(=O)N[C@@H]([C@@H](C)CC)C(=O)O[C@H]1C)[C@@H](C)CC)[C@@H](C)CC |  |  |  |  | 8 µg/mL (≈ 6.5 µM) | 32 µg/mL (≈ 26 µM) | 128 µg/mL (≈ 104 µM) | 128 µg/mL (≈ 104 µM)
CC[C@H](C)[C@H](NC(=O)[C@@H](Cc1ccccc1)NC)C(=O)N[C@@H](CO)C(=O)N[C@H](CCC(N)=O)C(=O)N[C@@H](C(=O)N[C@H](C(=O)N[C@@H](CCCCN)C(=O)N[C@H]1C(=O)N[C@@H](CCCCN)C(=O)N[C@@H](CCCCN)C(=O)N[C@@H]([C@@H](C)CC)C(=O)O[C@H]1C)[C@@H](C)CC)[C@@H](C)CC |  |  |  |  | 8 µg/mL (≈ 6.09 µM) | 128 µg/mL (≈ 97.4 µM) | 256 µg/mL (≈ 195 µM) | 128 µg/mL (≈ 97.4 µM)
CC[C@H](C)[C@H](NC(=O)[C@@H](Cc1ccccc1)NC)C(=O)N[C@@H](CO)C(=O)N[C@H](CCC(N)=O)C(=O)N[C@@H](C(=O)N[C@H](C(=O)N[C@@H](CO)C(=O)N[C@H]1C(=O)N[C@@H](C)C(=O)N[C@@H](CCCN)C(=O)N[C@@H]([C@@H](C)CC)C(=O)O[C@H]1C)[C@@H](C)CC)[C@@H](C)CC |  |  |  |  | 0.25 µg/mL (≈ 0.208 µM) | 2 µg/mL (≈ 1.66 µM) | 256 µg/mL (≈ 213 µM) | 32 µg/mL (≈ 26.6 µM)
CC[C@H](C)[C@H](NC(=O)[C@@H](Cc1ccccc1)NC)C(=O)N[C@@H](CCCCN)C(=O)N[C@H](CCCCN)C(=O)N[C@@H](C(=O)N[C@H](C(=O)N[C@@H](CO)C(=O)N[C@H]1C(=O)N[C@@H](C)C(=O)N[C@@H](CCCN)C(=O)N[C@@H]([C@@H](C)CC)C(=O)O[C@H]1C)[C@@H](C)CC)[C@@H](C)CC (H-[dNMeF]IK[dK][d(aIle)]IS[dT]A[Orn]I; ester 8-C) |  |  |  |  | 4 µg/mL (≈ 3.22 µM) | 16 µg/mL (≈ 12.9 µM) | 64 µg/mL (≈ 51.5 µM) | 64 µg/mL (≈ 51.5 µM)
CC[C@H](C)[C@H](NC(=O)[C@@H](Cc1ccccc1)NC)C(=O)N[C@@H](CO)C(=O)N[C@H](CCCCN)C(=O)N[C@@H](C(=O)N[C@H](C(=O)N[C@@H](CO)C(=O)N[C@H]1C(=O)N[C@@H](CCCCN)C(=O)N[C@@H](CCCCN)C(=O)N[C@@H]([C@@H](C)CC)C(=O)O[C@H]1C)[C@@H](C)CC)[C@@H](C)CC (H-[dNMeF]IS[dK][d(aIle)]IS[dT]KKI; ester 8-C) |  |  |  |  | 1 µg/mL (≈ 0.785 µM) | 4 µg/mL (≈ 3.14 µM) | 64 µg/mL (≈ 50.3 µM) | 32 µg/mL (≈ 25.1 µM)
